From publication PMC11672294, “The Antipsychotic Drug Aripiprazole Suppresses Colorectal Cancer by Targeting LAMP2a to Induce RNH1/miR‐99a/mTOR‐Mediated Autophagy and Apoptosis” (Advanced Science, 2024) come the findings set out here.

Structures can show the parent of a compound that is named as a salt.

In one data set the test system is HT29. Conditions: 72 h, relative to DMSO, 10 µM, Relative cell viability (%). The method in brief:
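Cells were exposed to drug for 72 h, then to WST-1 for 2 h at 37 °C, and absorbance was read at 450 nm as viability against DMSO treatment. In the screen, each compound was applied at 10 µM.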
Regarding `CN1CCN(c2ccc3nc(-c4c(N)c5c(F)cccc5[nH]c4=O)[nH]c3c2)CC1` [Dovitinib (TKI-258) Dilactic Acid], the “Relative cell viability (%)” value was found to be 12.62%. Take `O=C(O)Cc1ccccc1Nc1c(Cl)cccc1Cl` [Diclofenac Potassium]: the “Relative cell viability (%)” value is reported as 69.42%.

Still in this data set, the particulars now being: 72 h, relative to DMSO; 10 µM.
`CNC[C@H](O)[C@@H](O)[C@H](O)[C@H](O)CO` [Meglumine]: the “Relative cell viability (%)” value came out at 172.9%. For `CCCCc1oc2ccc(NS(C)(=O)=O)cc2c1C(=O)c1ccc(OCCCN(CCCC)CCCC)cc1` [Dronedarone HCl], the “Relative cell viability (%)” value is listed as 86.05%. Turning to `CN1CCN2c3ccccc3Cc3ccccc3C2C1` (stereo not drawn) [Mianserin HCl], the “Relative cell viability (%)” value turned out to be 57.17%. Regarding `C#Cc1cccc(Nc2ncnc3cc(OCCOC)c(OCCOC)cc23)c1` [Erlotinib], the “Relative cell viability (%)” value was 79.06%.

Consider `CCC1=C[C@@H]2CN(C1)Cc1c([nH]c3ccccc13)[C@@](C(=O)OC)(c1cc3c(cc1OC)N(C)[C@H]1[C@@](O)(C(=O)OC)[C@H](OC(C)=O)[C@]4(CC)C=CCN5CC[C@]31[C@@H]54)C2` [Vinorelbine Tartrate], for which the “Relative cell viability (%)” value was found to be 15.76%.

Take `Cn1ncc(Cl)c1-c1cc(C(=O)N[C@H](CN)Cc2ccc(F)c(F)c2)oc1Cl` [Uprosertib (GSK2141795)]: the “Relative cell viability (%)” value was found to be 4.701%. On to `COC(c1ccccc1)(c1ccccc1)[C@H](Oc1nc(C)cc(C)n1)C(=O)O` [Ambrisentan], for which the “Relative cell viability (%)” value was determined as 132.6%. Same read-out and setting: the value for `CC(C)c1nc(N(C)S(C)(=O)=O)nc(-c2ccc(F)cc2)c1/C=C/[C@@H](O)C[C@@H](O)CC(=O)O` [Rosuvastatin Calcium] was 120.2%; that for `Cn1c(=O)cc(N2CCC[C@@H](N)C2)n(Cc2ccccc2C#N)c1=O` [Alogliptin] was 101.5%; that for `CNC(=O)[C@H](Cc1ccccc1)NC(=O)[C@H](CC(C)C)[C@H](CSc1cccs1)C(=O)NO` [Batimastat (BB-94)] was 103.4%. Still for that read-out and setting: next, `COc1cc([C@H]2Oc3cc([C@H]4Oc5cc(O)cc(O)c5C(=O)[C@@H]4O)ccc3O[C@@H]2CO)ccc1O` [Silibinin]: 119.6%; `NS(=O)(=O)NCCNc1nonc1C(=NO)Nc1ccc(F)c(Br)c1` [Epacadostat (INCB024360)]: 100.9%; `S=C(NCc1ccc2c(c1)OCO2)N1CCN(c2ncnc3c2oc2ccccc23)CC1` [Amuvatinib (MP-470)]: 66.51%. As for `Cc1cc(C)c2c(c1)[C@@H](N(Cc1cc(C(F)(F)F)cc(C(F)(F)F)c1)c1nnn(C)n1)CCCN2C[C@H]1CC[C@H](C(=O)O)CC1` [Evacetrapib (LY2484595)], the “Relative cell viability (%)” value came to 40.29%.

For the molecule `Cc1cccc(CN2CCN(C(c3ccccc3)c3ccc(Cl)cc3)CC2)c1` (stereo not drawn) [Meclizine 2HCl], the “Relative cell viability (%)” value was found to be 130.4%. Same read-out and setting: next, `COc1nc(C)nc(Cl)c1N=C1NCCN1` [Moxonidine]: 116.7%; `O=C(Nc1c(Cl)cncc1Cl)c1ccc(OC(F)F)c(OCC2CC2)c1` [Roflumilast]: 121.4%. On the same count and under the same terms, the value for `Fc1ccc(C(c2ccc(F)cc2)N2CCN(C/C=C/c3ccccc3)CC2)cc1` [Flunarizine 2HCl] was 73.29%; that for `CO[C@H]1C(=O)[C@]2(C)[C@@H](OC)C[C@H]3OC[C@@]3(OC(C)=O)[C@H]2[C@H](OC(=O)c2ccccc2)[C@]2(O)C[C@H](OC(=O)[C@H](O)[C@@H](NC(=O)OC(C)(C)C)c3ccccc3)C(C)=C1C2(C)C` [Cabazitaxel] was 12.62%.

Regarding `C[C@@H](O)[C@H]1C(=O)N2C(C(=O)O)=C(S[C@@H]3CN[C@H](C(=O)N(C)C)C3)[C@H](C)[C@H]12` [Meropenem], the “Relative cell viability (%)” value was determined as 72.74%.

For the molecule `CCOC(=O)c1c(C)n(C)c2ccc(O)cc12` [Mecarbinate], the “Relative cell viability (%)” value stood at 130.3%. `[H]/N=C(\N/C(=N/[H])NCCCCCCNC(=N)NC(=N)Nc1ccc(Cl)cc1)Nc1ccc(Cl)cc1` [Chlorhexidine HCl]: the “Relative cell viability (%)” value amounted to 28.64%. Consider `NC(=O)Cc1cccc(C(=O)c2ccccc2)c1N` [Nepafenac], for which the “Relative cell viability (%)” value is 77.41%. For `CC(=O)Oc1cccc2c1C(=O)c1c(OC(C)=O)cc(C(=O)O)cc1C2=O` [Diacerein], the “Relative cell viability (%)” value came out at 73.94%. On to `CC(C)C[C@H](NC(=O)CNC(=O)c1cc(Cl)ccc1Cl)B(O)O` [MLN2238], for which the “Relative cell viability (%)” value amounted to 125%.

For `O=C(NC(Cc1cc(=O)[nH]c2ccccc12)C(=O)O)c1ccc(Cl)cc1` (stereo not drawn) [Rebamipide], the “Relative cell viability (%)” value amounted to 125.4%. Same read-out and setting: next, `CCCc1cc(C(N)=S)ccn1` [Protionamide]: 123.7%; `CC(C)(Oc1ccc(C2CC2(Cl)Cl)cc1)C(=O)O` (stereo not drawn) [Ciprofibrate]: 34.47%; `CCCCCCCCCCCCCCCC[n+]1ccccc1` [Cetylpyridinium Chloride]: 5.758%.

For the molecule `C[C@@H](O[C@H]1OCCN(Cc2nc(O)n(P(=O)(O)O)n2)[C@H]1c1ccc(F)cc1)c1cc(C(F)(F)F)cc(C(F)(F)F)c1` [Fosaprepitant dimeglumine salt], the “Relative cell viability (%)” value is 111.6%.

For the molecule `Cc1ncc([N+](=O)[O-])n1CCO` [Metronidazole], the “Relative cell viability (%)” value is 113.4%. Still for that read-out and setting: the value for `CCCS(=O)(=O)Nc1ccc(F)c(C(=O)c2c[nH]c3ncc(-c4ccc(Cl)cc4)cc23)c1F` [Vemurafenib (PLX4032, RG7204)] was 36.92%. Still for that read-out and setting: the value for `COc1cc2c(cc1Cc1cccc(Cl)c1F)c(=O)c(C(=O)O)cn2[C@H](CO)C(C)C` [Elvitegravir (GS-9137, JTK-303)] was 58.4%; that for `Nc1nnc(-c2cccc(Cl)c2Cl)c(N)n1` [Lamotrigine] was 100%; that for `CCCCOc1ccc(CC(=O)NO)cc1` [Bufexamac] was 101.5%. The same measure, in the same setting: next, `c1cn2cc(-c3ccc4cn[nH]c4c3)nc(Nc3ccc(N4CCOCC4)cc3)c2n1` [GS-9973]: 116.2%; `C#C[C@]1(O)C=C[C@H]2[C@@H]3CCC4=CC(=O)CC[C@@H]4[C@H]3CC[C@@]21CC` [Gestodene]: 69.63%; `CCCCCCCCCCCC1=C(O)C(=O)C=C(O)C1=O` [Embelin]: 140.6%. On to `CCN1CCN(C(=O)N[C@@H](C(=O)N[C@@H]2C(=O)N3[C@@H]2SC(C)(C)[C@@H]3C(=O)O)c2ccccc2)C(=O)C1=O` [Piperacillin Sodium], for which the “Relative cell viability (%)” value is listed as 73.94%. With `NC(CO)(CO)CO` [Trometamol], the “Relative cell viability (%)” value was found to be 73.94%. `Cc1ccc(S(=O)(=O)NC(=O)NN2CC3CCC[C@@H]3C2)cc1` (stereo in doubt) [Gliclazide]: the “Relative cell viability (%)” value stood at 70.87%.

For `CC1(C)Cc2c(-c3ccccc3)c(-c3ccc(Cl)cc3)c(CC(=O)O)n2C1` [Licofelone], the “Relative cell viability (%)” value is listed as 137.9%. The same measure, in the same setting: the value for `O=C1c2ccccc2C(=O)C1c1ccccc1` [Phenindione] was 136.8%; that for `COc1ccc2c(c1)c(CC(=O)OCC(=O)O)c(C)n2C(=O)c1ccc(Cl)cc1` [Acemetacin] was 81.07%.

As for `COc1cc2nc(N3CCN(C(=O)C4COc5ccccc5O4)CC3)nc(N)c2cc1OC` (stereo not drawn) [Doxazosin Mesylate], the “Relative cell viability (%)” value is 63.4%. Consider `CC(CCc1ccccc1)NCC(O)c1ccc(O)c(C(N)=O)c1` (stereo not drawn) [Labetalol HCl], for which the “Relative cell viability (%)” value stood at 55.76%.

`C[C@H]1COc2c(N3CCN(C)CC3)c(F)cc3c(=O)c(C(=O)O)cn1c23` [Levofloxacin]: the “Relative cell viability (%)” value was 124%. Take `CCc1cccc2c3c([nH]c12)C(CC)(CC(=O)O)OCC3` (stereo not drawn) [Etodolac]: the “Relative cell viability (%)” value turned out to be 86.76%. On the same count and under the same terms, next, `Nc1nc2c(ncn2CCC(CO)CO)c(=O)[nH]1` [Penciclovir]: 100.303%. On the same count and under the same terms, the value for `CNC(=O)[C@H](Cc1c[nH]c2ccccc12)NC(=O)[C@@H](CC(=O)NO)CC(C)C` [Ilomastat (GM6001, Galardin)] was 95.73%. Same read-out and setting: next, `O=C(CCCN1CCC(O)(c2ccc(Cl)cc2)CC1)c1ccc(F)cc1` [Haloperidol]: 29.34%; `C[C@@H]1CC(=O)NN=C1c1ccc(NN=C(C#N)C#N)cc1` [Levosimendan]: 103.1%; `CO/N=C(\C(=O)N[C@@H]1C(=O)N2C(C(=O)OCOC(=O)C(C)(C)C)=C(/C=C\c3scnc3C)CS[C@H]12)c1csc(N)n1` [Cefditoren Pivoxil]: 66.53%. For the molecule `O=c1cc[nH]c(=O)[nH]1` [Uracil], the “Relative cell viability (%)” value amounted to 73.94%. `C=CC(=O)Nc1cc(Nc2nccc(-c3cn(C)c4ccccc34)n2)c(OC)cc1N(C)CCN(C)C` [AZD9291]: the “Relative cell viability (%)” value is reported as 0.8547%. As for `CCc1cc(C(N)=S)ccn1` [Ethionamide], the “Relative cell viability (%)” value was found to be 62.71%. Still for that read-out and setting: next, `Clc1ccc(CCC(Cn2ccnc2)Sc2c(Cl)cccc2Cl)cc1` (stereo not drawn) [Butoconazole nitrate]: 63.98%; `CC(NC(C)(C)C)C(=O)c1cccc(Cl)c1` (stereo not drawn) [Amfebutamone HCl]: 104.9%; `CN(CCOc1ccc(CC2SC(=O)NC2=O)cc1)c1ccccn1` (stereo not drawn) [Rosiglitazone HCl]: 114.3%.

In the case of `CN(C)[C@@H]1C(O)=C(C(N)=O)C(=O)[C@@]2(O)C(O)=C3C(=O)c4c(O)ccc(Cl)c4[C@@H](O)[C@H]3C[C@@H]12` [Demeclocycline HCl], the “Relative cell viability (%)” value is 74.85%.

Staying with this data set, now noted: ht29 cells, 72 h, 10 µM.
Consider `CCc1c(Cl)c(O)c(Cl)c(O)c1C(=O)O[C@H]1[C@H](O)[C@H](OC)[C@H](OC/C2=C\C=C\C[C@H](O)/C(C)=C/[C@H](CC)[C@@H](O[C@@H]3OC(C)(C)[C@@H](OC(=O)C(C)C)[C@H](O)[C@@H]3O)/C(C)=C/C(C)=C/C[C@@H]([C@@H](C)O)OC2=O)O[C@@H]1C` [Fidaxomicin], for which the “Relative cell viability (%)” value came out at 94.85%.
